Experimental data reported in ChEMBL document CHEMBL1201862, “PubChem BioAssay data set” (2004).
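Step 1: Grow cells in 96-well plates. Step 2: Expose to compound for 48 hours at 5 concentrations. Step 3: Interpolate endpoints linearly; if unreached, use highest concentration. GI50 is the concentration that inhibits growth by half.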 The source made the active and inactive calls. Rule as the data show it: active = GI50 up to about 1.1 µM and inactive = higher.

Key:
Test in all cases: NCI anticancer screen, dose series, 48 h
Hs-578T = tested on: Hs-578T
MDA-N = tested on: MDA-N
DLD-1 = tested on: DLD-1
HOP-18 = tested on: HOP-18
KM-20L2 = tested on: KM-20L2
LXFL 529 = tested on: LXFL 529
XF498 = tested on: XF498
DMS-273 = tested on: DMS-273

Structure (SMILES)	GI50 (Hs-578T)	GI50 (MDA-N)	further results
COc1ccc(C(=O)/C=C/c2ccc(O)c(O)c2)c(OC)c1	2.19 µM (inactive)	0.454 µM (active)	
CCCCn1cnc2c(SC)ncnc21	> 100 µM (inactive)	> 100 µM (inactive)	
O=c1c2ccccc2[nH]c(=S)n1-c1ccc(Br)cc1			GI50 (DLD-1): 49.7 µM (inactive); GI50 (HOP-18): > 100 µM (inactive); GI50 (KM-20L2): 63.4 µM (inactive); GI50 (LXFL 529): 37.3 µM (inactive); GI50 (XF498): > 100 µM (inactive)
CN(O)C(=O)CCC(NC(=O)CCC(N)C(=O)O)C(=O)NCC(=O)O (configuration not stated)	> 100 µM (inactive)	> 100 µM (inactive)	
Cc1cccc(NC(=O)CSc2nnc(Cc3ccccc3)o2)c1			GI50 (DLD-1): > 100 µM (inactive); GI50 (DMS-273): > 100 µM (inactive); GI50 (HOP-18): > 100 µM (inactive); GI50 (KM-20L2): > 100 µM (inactive); GI50 (LXFL 529): > 100 µM (inactive)
COc1cc2c(/C=C3/C(=O)Nc4ccccc43)c(Cl)n(Cc3ccc(Cl)cc3)c2cc1C	0.401 µM (active)		
Brc1ccc(-c2[nH]c3ccccc3c2/N=N\c2ccccc2)cc1	20.7 µM (inactive)	16.6 µM (inactive)	
CC(C)(C)OC(=O)NC(Cc1ccc(OC(C)(C)C)cc1)C(=O)N[C@H]1CCC[C@H]1C(=O)NC(Cc1ccccc1)C(=O)N1CCCC1C(N)=O (some centres not stated)	> 100 µM (inactive)	> 100 µM (inactive)	
O=C1/C(=C/c2ccc(O)cc2)CCc2ccccc21	23 µM (inactive)	22.1 µM (inactive)	
COC(=O)C1C(O)C(C)C(O)C(C)(O)C=C(C)C2=C3C(=C(C)C(=O)c4c(O)c(c(C)c(OC(C)=O)c43)NC(=O)C(C)=C/C=C\C(C)(O)C(O)C(C)C1O)OCO2 (configuration not stated)	> 100 µM (inactive)	40.3 µM (inactive)	
COc1cc(-c2n[nH]cc2CCCC(=O)Nc2ccccc2[N+](=O)[O-])ccc1O			GI50 (DLD-1): > 100 µM (inactive); GI50 (DMS-273): 66.7 µM (inactive); GI50 (HOP-18): > 100 µM (inactive); GI50 (LXFL 529): > 100 µM (inactive); GI50 (XF498): > 100 µM (inactive)
Clc1ccc(/C=N/c2ccc3c(c2)Cc2ccccc2-3)c(Cl)c1	> 100 µM (inactive)	53.2 µM (inactive)	
Clc1ccccc1-c1nn2c(CCCCCCCCc3nnc4sc(-c5ccccc5Cl)nn34)nnc2s1	> 100 µM (inactive)	> 100 µM (inactive)	
COc1cc(/C=C/C(=O)C2(C(=O)/C=C/c3cc(OC)c(OC)c(OC)c3)CCCCC2)cc(OC)c1OC	29.6 µM (inactive)		
CNc1ncnc2c1cnn2Cc1cn(COCC(O)CO)nn1 (configuration not stated)	0.149 µM (active)	> 100 µM (inactive)	
CCOc1cc(NC(C)=O)ccc1C(=O)NN1C(=O)CSC1c1ccc(O)c(OC)c1 (configuration not stated)	82.4 µM (inactive)	54.7 µM (inactive)	

Structure (SMILES)	GI50 (Hs-578T)	GI50 (MDA-N)	further results
O=C(CC1(O)C(=O)Nc2ccccc21)c1ccccc1Cl (configuration not stated)			GI50 (DLD-1): > 100 µM (inactive); GI50 (DMS-273): > 100 µM (inactive); GI50 (KM-20L2): > 100 µM (inactive); GI50 (LXFL 529): > 100 µM (inactive); GI50 (XF498): > 100 µM (inactive)
CC(C)(CO)CNc1cc(Cl)nc(N)n1	> 100 µM (inactive)	> 100 µM (inactive)	
Cc1ccc(O)c(C(c2ccc(C(c3cc(C)ccc3O)c3cc(C)ccc3O)cc2)c2cc(C)ccc2O)c1	2.39 µM (inactive)	1.52 µM (inactive)	
Cc1c(C2Cc3ccccc3N2)c2ccccc2n1C (configuration not stated)			GI50 (DLD-1): > 100 µM (inactive); GI50 (DMS-273): > 100 µM (inactive); GI50 (KM-20L2): > 100 µM (inactive); GI50 (LXFL 529): > 100 µM (inactive); GI50 (XF498): > 100 µM (inactive)
CC1CC[C@@]2(OC1)OC1C[C@H]3[C@@H]4CC[C@H]5CC(OC6OC(CO)C(O)C(OC7OC(CO)C(OC8OC(CO)C(O)C(OC9OC(CO)C(O)C(O)C9O)C8OC8OC(CO)C(O)C(O)C8O)C(O)C7O)C6O)[C@H](O)CC5(C)[C@H]4CCC3(C)C1[C@@H]2C (some centres not stated)	1.84 µM (inactive)	6.59 µM (inactive)	
CCc1cccc(C)c1NC(=O)CCc1n[nH]c(=S)o1			GI50 (DLD-1): 44.4 µM (inactive); GI50 (DMS-273): 37.8 µM (inactive); GI50 (HOP-18): > 100 µM (inactive); GI50 (KM-20L2): > 100 µM (inactive); GI50 (LXFL 529): > 100 µM (inactive)
CC(=O)NC(Cc1ccc(O)cc1)C(=O)O (configuration not stated)	> 100 µM (inactive)	> 100 µM (inactive)	
c1ccc2c[n+](Cc3ccnc4ccccc34)ccc2c1	> 100 µM (inactive)	> 100 µM (inactive)	
Clc1nc2c(C#Cc3ccccc3)ncnc2n1C1CCCCO1 (configuration not stated)	24.7 µM (inactive)	8.47 µM (inactive)	
N=C(N)NS(=O)(=O)c1ccc(NC(=O)c2c3ccccc3nc3ccccc23)cc1		> 100 µM (inactive)	
CC(C)(C)OC(=O)NC(C)(C)C(=O)NCCC(=O)O	> 100 µM (inactive)		
O=[N+]([O-])C(=C1c2ccccc2-c2ccccc21)[N+](=O)[O-]			GI50 (DMS-273): > 10 µM (inactive); GI50 (KM-20L2): 57.3 µM (inactive); GI50 (LXFL 529): 41.3 µM (inactive)
COc1cc(/C=C2/SC(c3ccccc3)N(c3ccccc3Cl)C2=O)cc(OC)c1OC (configuration not stated)	30 µM (inactive)	28 µM (inactive)	
CC(=O)O[C@@H]1C2=C(C)C=C(O2)[C@H]2O[C@]2(C)C[C@H]2C=C(C(=O)O2)[C@H](OC(C)=O)CC1[C@@]1(C)CO1 (some centres not stated)		30.3 µM (inactive)	
Cc1ccccc1/N=N/c1ccc(/N=N/c2c(O)ccc3cc(S(=O)(=O)O)cc(S(=O)(=O)O)c23)c(C)c1	> 100 µM (inactive)		
CC1CN(c2cc3c(cc2F)c(=O)c(C(=O)O)cn3-c2ccc(N3CCN(C)CC3)cn2)CC(C)N1 (configuration not stated)	> 100 µM (inactive)	> 100 µM (inactive)	
